Results on 8 compounds are retold here after ChEMBL document CHEMBL5579856, “Stereospecific Synthesis and Biological Evaluation of KRN7000 Analogues with Thio-modifications at the Acyl Moiety” (2024).

Format in all cases: functional
Holding throughout (settings): dose 200 µg/kg

Experiment [1] deals with Mus musculus. Put plainly: Induction of IFN-gamma secretion in male C57BL/6 mouse assessed as […] in serum at 200 ug/kg, iv measured after 16 hrs by ELISA (reference value: BLD). (In general: In an ELISA, binding on a coated surface is turned into a signal by an enzyme label.)
Experiment [2] concerns Mus musculus. Put plainly: Induction of IL-4 secretion in male C57BL/6 mouse assessed as IL-4 level in serum at 200 ug/kg, iv measured after 4 hrs by ELISA (reference value: BLD).
Experiment [3] deals with Mus musculus. The experiment is described as follows: Induction of cytokine secretion in male C57BL/6 mouse assessed as ratio of IFN-gamma to IL-4 level in serum at 200 ug/kg, iv by ELISA.

For `CCCCCCCCCCCCCC[C@@H](O)[C@@H](O)[C@H](CO[C@H]1O[C@H](CO)[C@H](O)[C@H](O)[C@H]1O)NC(=O)CCCCCCCCCCc1ccc(F)cc1`, the Activity in experiment [1] stood at 2470.48 pg/mL; in experiment [2], 425.65 pg/mL. In experiment [3], the Ratio was found to be 2.03.
With `CCCCCCCCCCCCCC[C@@H](O)[C@@H](O)[C@H](CO[C@H]1O[C@H](CO)[C@H](O)[C@H](O)[C@H]1O)NC(=S)CCCCCCCCCCc1ccc(F)cc1`, the values for the Activity in experiment [1] and in experiment [2] were 1610.18 pg/mL and 276.98 pg/mL, respectively. The Ratio in experiment [3] is given as 2.03.
The corresponding values for `CCCCCCCCCCCCCCCCCCCCCCCCCC(=S)N[C@@H](CO[C@H]1O[C@H](CO)[C@H](O)[C@H](O)[C@H]1O)[C@H](O)[C@H](O)CCCCCCCCCCCCCC` are 3291.25 pg/mL, 951.79 pg/mL and 1.21.
In the case of `CCCCCCCCCCCCCC[C@@H](O)[C@@H](O)[C@H](CO[C@H]1O[C@H](CO)[C@H](O)[C@H](O)[C@H]1O)NC(=O)CCCCCCCCCCc1ccc(Oc2ccc(F)cc2)cc1`, the Activity is 655.43 pg/mL in experiment [1] and 205.34 pg/mL in experiment [2]. The Ratio in experiment [3] is given as 1.12.
The corresponding values for `CCCCCCCCCCCCCC[C@@H](O)[C@@H](O)[C@H](CO[C@H]1O[C@H](CO)[C@H](O)[C@H](O)[C@H]1O)NC(=O)CCCCCCCCCCc1ccc(Sc2ccc(F)cc2)cc1` are 2100.52 pg/mL, 324.56 pg/mL and 2.26.
The corresponding values for `CCCCCCCCCCCCCC[C@@H](O)[C@@H](O)[C@H](CO[C@H]1O[C@H](CO)[C@H](O)[C@H](O)[C@H]1O)NC(=S)CCCCCCCCCCc1ccc(Oc2ccc(F)cc2)cc1` are 571.16 pg/mL, 125.69 pg/mL and 1.59.
The corresponding values for `CCCCCCCCCCCCCC[C@@H](O)[C@@H](O)[C@H](CO[C@H]1O[C@H](CO)[C@H](O)[C@H](O)[C@H]1O)NC(=S)CCCCCCCCCCc1ccc(Sc2ccc(F)cc2)cc1` are 1046.54 pg/mL, 396.07 pg/mL and 0.99.
As to `CCCCCCCCCCCCCCCCCCCCCCCCCC(=O)N[C@@H](CO[C@H]1O[C@H](CO)[C@H](O)[C@H](O)[C@H]1O)[C@H](O)[C@H](O)CCCCCCCCCCCCCC` [RGI-7000], the results for the Activity in experiment [1] and in experiment [2] were 3083.43 pg/mL and 1077.7 pg/mL, respectively.
